“And” between values parts separate entries of the source, which are not always exact repeats. Equal values may be shown once.
Key:
[1] = system: kidney transplantation patients; test: Clinical study: pulse wave velocity measurement of arterial stiffness; type: in vivo, human; details: kidney transplant patients, 360 ug/day, 8 weeks
Experimental: Clinical Study to study the efficacy and safety of Vitamin K2 supplementation on arterial stiffness, the rigidity of arterial walls, in kidney transplantation patients.
A clinical study was carried out. Arterial wall property measurements were taken at t=0 and t=8 weeks and show a dramatic improvement in arterial wall flexibility. This is good support for concluding that the ingestion of vitamin K, even over this short period, is an effective way of improving endothelial function, reducing arterial stiffness and reducing calcification. […] It is surprising and unexpected because calcification is a slow progressive process and it was thought that reversing this process would also be slow and progressive.
Participants were enrolled in a clinical trial in which the effects of vitamin K2 were determined for patients who had recently undergone a kidney transplant. At the beginning of the study, patients were subjected to a non-invasive pulse wave velocity measurement to measure arterial stiffness/flexibility, as well as blood analysis. The study participants were then instructed to receive a specific daily dose of MenaQ7 vitamin K2 menaquinone-7 (360 ug/day) for a total of 8 weeks. At the end of 8 weeks, patients were again examined with a follow-up examination, a non-invasive pulse wave velocity measurement and blood analysis and drug treatment was discontinued.

[2] = mouse, in vivo
[3] = system: ApoE/LDLR−/− mice; test: Example 2: MRI-based assessment of NO-dependent vasodilatation in BCA and LCA after acetylcholine; type: in vivo; details: two months, 6-month old mice
Experimental: Endpoint assays: Magnetic resonance imaging (MRI)-based assessment of nitric oxide (NO)-dependent vasodilatation in brachiocephalic (BCA) and left common carotid artery (LCA) after acetylcholine (Ach) administration—by MRI 9.4T scanner, total time of measurements: 114 h (1.5 h per animal), acetylcholine (Ach, 16.6 mg/kg b.w.)
Studies were performed on 4-month old female ApoE/LDLR−/− mice, the model initially described by Ishibashi S, Herz J, Maeda N, Goldstein J, Brown M. The two-receptor model of lipoprotein clearance: tests of the hypothesis in “knockout” mice lacking the low density lipoprotein receptor, apolipoprotein E, or both proteins. Proc Natl Acad Sci USA 1994; 10:4431-5., and extensively characterized in previous studies, [see Kostogrys R B, Franczyk-Zarow M, Gasior-Glogowska M, Kus E, Jasztal A, Wrobel T P, et al. Anti-atherosclerotic effects of pravastatin in brachiocephalic artery in comparison with en face aorta and aortic roots in ApoE/LDLR−/− mice. Pharmacol Reports 2017; 69:112-8. doi:10.1016/j.pharep.2016.09.014; Tyrankiewicz U, Skorka T, Orzylowska A, Jablonska M, Jasinski K, Jasztal A, et al. Comprehensive MRI for the detection of subtle alterations in diastolic cardiac function in apoE/LDLR−/− mice with advanced atherosclerosis. NMR Biomed 2016; 29:833-40. doi:10.1002/nbm.3524; Mateuszuk L, Jasztal A, Maslak E, Gasior-Glogowska M, Baranska M, Sitek B, et al. Antiatherosclerotic Effects of 1-Methylnicotinamide in Apolipoprotein E/Low-Density Lipoprotein Receptor-Deficient Mice: A Comparison with Nicotinic Acid. J Pharmacol Exp Ther 2016; 356:514-24. doi:10.1124/jpet.115.228643; Wrobel T P, Marzec K M, Chlopicki S, Maślak E, Jasztal A, Franczyk-Żarów M, et al., Effects of Low Carbohydrate High Protein (LCHP) diet on atherosclerotic plaque phenotype in ApoE/LDLR−/− mice: FT-IR and Raman imaging. […] End-diastolic volumes of BCA and LCA were analyzed using ImageJ software (1.46r NIH Bethesda, Md., USA) and scripts written in Matlab (MathWorks, Natick, Mass., USA) (FIG. 1A).

## CC(C)=CCC/C(C)=C/CC/C(C)=C/CC/C(C)=C/CC/C(C)=C/CC/C(C)=C/CC/C(C)=C/CC1=C(C)C(=O)c2ccccc2C1=O [MK-7, menaquinone-7]
[1]
  mean reduction in measured pulse-wave velocity: 30%
[2]
  vitamin K1 and K1 2,3-epoxide plasma concentration: tent to decrease
[2]; 5 mg/kg/day
  concentration of MK4 2,3-epoxide in plasma: maintained at similar level
  plasma concentration of K2 (MK-7): dose-dependent increase
  plasma concentration of MK-4: dose-dependent increase
[3]; high dose 10 mg/kg b.w./day
  volume change of BCA after Ach injection: 3.12%
  volume change of LCA after Ach injection: 4.45%
[3]; low dose 0.03 mg/kg b.w./day, listed as vitamin MK-7, 0.03 mg/kg/day
  volume change of LCA after Ach injection: ~−3% and −3.92%

Reference: patent US20200289434A1, “RAPIDLY IMPROVING ENDOTHELIAL FUNCTION, REDUCING ARTERIAL STIFFNESS AND REVERSING CALCIFICATION OF BLOOD VESSELS BY ADMINISTERING VITAMIN K” (KAYDENCE PHARMA AS, priority 2019, published 2020)
